Key:
FABLE [1] = experiment: fluorescence titration, single-site binding model; parameters: species or system synthetic construct
FABLE [2] = experiment: fluorescence titration, global single-site fit; type: binding, synthetic construct

Row | SMILES | Kd (FABLE [1]) [µM] | Kd (FABLE [2]) [µM]
1 | CCN(CC)c1ccc2c(C(F)(F)F)cc(=O)oc2c1 [Cou481] | 5.8 ± 0.7 | 
2 | CN(C)c1ccc2c(C(F)(F)F)cc(=O)oc2c1 [Cou485, 7-(dimethylamino)-4-(trifluoromethyl)coumarin] |  | 27.8 ± 1
3 | O=c1cc(C(F)(F)F)c2cc3c4c(c2o1)CCCN4CCC3 [Cou540a] | 2 ± 0.1 | 
